Laboratory results reported in US20070244162A1 (priority 2005, published 2007).

Key:
Type in all cases: cell-based
Botrytis cinerea = system: Botrytis cinerea
Phytophthora infestans = assay: microbe, parasite or virus in culture; conditions: read-out: Fungicidal activity IC50, P. infestans
Stagonospora nodorum = assay: microbe, parasite or virus in culture
Septoria tritici = assay: microbe, parasite or virus in culture; conditions: for IC50: Zymoseptoria tritici, read-out: Fungicidal activity IC50, S. tritici
Monilinia fructicola = assay: microbe, parasite or virus in culture; conditions: read-out: Fungicidal activity IC50, M. fructicola

Row | Compound | Fungicidal activity IC50, B. cinerea (Botrytis cinerea) | IC50 (Phytophthora infestans) [nM] | IC50 (Stagonospora nodorum; Parastagonospora nodorum, read-out: Fungicidal activity IC50, S. nodorum) [nM] | Fungicidal activity IC50, S. tritici (Septoria tritici) | IC50 (Monilinia fructicola) [nM] | Fungicidal activity IC50, S. nodorum (Stagonospora nodorum) | IC50 (Septoria tritici) [nM]
1 | OC(c1cccnc1)c1c(-c2ccc(Cl)cc2)csc1-c1ccc(Cl)s1 (stereo not shown) [Compound 4, 4-(4-Chlorophenyl)-2-(5-chloro-2-thienyl)-3-[(3-pyridyl)hydroxymethyl]-thiophene] | B (c) | > 100000 | 110 to 1000 | A (d) | < 100 |  | 
2 | OC(c1cccnc1)c1c(-c2ccc(F)cc2F)csc1-c1ccc(Cl)cc1 (stereo not shown) [Compound 6, 2-(4-Chlorophenyl)-4-(2,4-difluorophenyl)-3-[(3-pyridyl)hydroxymethyl]-thiophene] | B (d) | > 100000 |  | A (b) | < 100 | B (c) | 
3 | OC(c1cccnc1)c1c(-c2ccc(Cl)cc2)csc1-c1ccc(Cl)cc1 (stereo not shown) [Compound 8, 2,4-Bis-(4-chlorophenyl)-3-[(3-pyridyl)hydroxymethyl]-thiophene] |  | > 100000 |  | A (d) |  | B (d) | 
4 | OC(c1cccnc1)c1c(-c2ccc(Cl)cc2)csc1-c1cccs1 (stereo not shown) [Compound 9, 4-(4-Chlorophenyl)-3-[(3-pyridyl)hydroxymethyl]-2-(2-thienyl)thiophene] | B (d) | > 100000 |  | A (c) | < 100 | A (d) | 
5 | OC(c1cccnc1)c1c(-c2cccs2)csc1-c1ccc(Cl)cc1 (stereo not shown) [Compound 12, 2-(4-Chlorophenyl)-3-[(3-pyridyl)hydroxymethyl]-4-(2-thienyl)thiophene] | A (d) | > 100000 |  |  | < 100 | A (d) | < 100
6 | Cc1ccc(-c2csc(-c3ccc(F)cc3F)c2C(O)c2cccnc2)s1 (stereo not shown) [Compound 14, 2-(2,4-Difluorophenyl)-4-(5-methyl-2-thienyl)-3-[(3-pyridyl)hydroxymethyl]-thiophene] | B (d) | > 100000 |  |  | < 100 | A (b) | < 100
